Tests used:
HepG2 = test: Cytotoxicity against human HepG2 cells incubated for 72 hrs by CCK8 assay; type: functional, cell-based; conditions: HepG2, 72 h
A549 = test: Cytotoxicity against human A549 cells incubated for 72 hrs by CCK8 assay; type: functional, cell-based; conditions: A549, 72 h
MDA-MB-231 [1] = test: Cytotoxicity against human MDA-MB-231 cells incubated for 72 hrs by CCK8 assay; type: functional, cell-based; conditions: MDA-MB-231, 72 h
MDA-MB-231 [2] = test: Induction of cell cycle arrest at G2/M phase in human MDA-MB-231 cells incubated for 12 to 24 hrs by PI/RNase staining based flow cytometry; type: functional; conditions: dose <= 20.0 µM, time 12-24 hrs
MDA-MB-231 [3] = test: Induction of cell cycle arrest at G2/M phase in human MDA-MB-231 cells at 20 uM incubated for 12 to 24 hrs by PI/RNase staining based flow cytometry relative to control; type: functional; conditions: time 12-24 hrs
MDA-MB-231 [4] = test: Induction of apoptosis in human MDA-MB-231 cells assessed as viable cells at 15 uM incubated for 24 hrs by Annexin V-FITC/PI staining based flow cytometry (reference value: 88.2 %); type: functional; conditions: read-out: Activity
MDA-MB-231 [5] = test: Induction of apoptosis in human MDA-MB-231 cells assessed as early apoptotic cells at 15 uM incubated for 24 hrs by Annexin V-FITC/PI staining based flow cytometry (reference value: 7.39 %); type: functional
MDA-MB-231 [6] = test: Induction of apoptosis in human MDA-MB-231 cells assessed as late apoptotic cells at 15 uM incubated for 24 hrs by Annexin V-FITC/PI staining based flow cytometry (reference value: 3.36 %); type: functional
MDA-MB-231 [7] = test: Induction of apoptosis in human MDA-MB-231 cells assessed as necrotic cells at 15 uM incubated for 24 hrs by Annexin V-FITC/PI staining based flow cytometry (reference value: 1.06 %); type: functional
MDA-MB-231 [8] = test: Induction of apoptosis in human MDA-MB-231 cells assessed as viable cells at 17.5 uM incubated for 24 hrs by Annexin V-FITC/PI staining based flow cytometry (reference value: 88.2 %); type: functional; conditions: read-out: Activity
MDA-MB-231 [9] = test: Induction of apoptosis in human MDA-MB-231 cells assessed as early apoptotic cells at 17.5 uM incubated for 24 hrs by Annexin V-FITC/PI staining based flow cytometry (reference value: 7.39 %); type: functional
MDA-MB-231 [10] = test: Induction of apoptosis in human MDA-MB-231 cells assessed as late apoptotic cells at 17.5 uM incubated for 24 hrs by Annexin V-FITC/PI staining based flow cytometry (reference value: 3.36 %); type: functional
MDA-MB-231 [11] = test: Induction of apoptosis in human MDA-MB-231 cells assessed as necrotic cells at 17.5 uM incubated for 24 hrs by Annexin V-FITC/PI staining based flow cytometry (reference value: 1.06 %); type: functional
MDA-MB-231 [12] = test: Induction of apoptosis in human MDA-MB-231 cells assessed as viable cells at 20 uM incubated for 24 hrs by Annexin V-FITC/PI staining based flow cytometry (reference value: 88.2 %); type: functional; conditions: read-out: Activity
MDA-MB-231 [13] = test: Induction of apoptosis in human MDA-MB-231 cells assessed as early apoptotic cells at 20 uM incubated for 24 hrs by Annexin V-FITC/PI staining based flow cytometry (reference value: 7.39 %); type: functional
MDA-MB-231 [14] = test: Induction of apoptosis in human MDA-MB-231 cells assessed as late apoptotic cells at 20 uM incubated for 24 hrs by Annexin V-FITC/PI staining based flow cytometry (reference value: 3.36 %); type: functional
MDA-MB-231 [15] = test: Induction of apoptosis in human MDA-MB-231 cells assessed as necrotic cells at 20 uM incubated for 24 hrs by Annexin V-FITC/PI staining based flow cytometry (reference value: 1.06 %); type: functional
MDA-MB-231 [16] = test: Induction of apoptosis in human MDA-MB-231 cells assessed as viable cells at 15 uM incubated for 48 hrs by Annexin V-FITC/PI staining based flow cytometry (reference value: 91.2 %); type: functional; conditions: read-out: Activity
MDA-MB-231 [17] = test: Induction of apoptosis in human MDA-MB-231 cells assessed as early apoptotic cells at 15 uM incubated for 48 hrs by Annexin V-FITC/PI staining based flow cytometry (reference value: 5.72 %); type: functional
MDA-MB-231 [18] = test: Induction of apoptosis in human MDA-MB-231 cells assessed as late apoptotic cells at 15 uM incubated for 48 hrs by Annexin V-FITC/PI staining based flow cytometry (reference value: 2.79 %); type: functional
MDA-MB-231 [19] = test: Induction of apoptosis in human MDA-MB-231 cells assessed as necrotic cells at 15 uM incubated for 48 hrs by Annexin V-FITC/PI staining based flow cytometry (reference value: 0.33 %); type: functional
MDA-MB-231 [20] = test: Induction of apoptosis in human MDA-MB-231 cells assessed as viable cells at 17.5 uM incubated for 48 hrs by Annexin V-FITC/PI staining based flow cytometry (reference value: 91.2 %); type: functional; conditions: read-out: Activity
MDA-MB-231 [21] = test: Induction of apoptosis in human MDA-MB-231 cells assessed as early apoptotic cells at 17.5 uM incubated for 48 hrs by Annexin V-FITC/PI staining based flow cytometry (reference value: 5.72 %); type: functional
MDA-MB-231 [22] = test: Induction of apoptosis in human MDA-MB-231 cells assessed as late apoptotic cells at 17.5 uM incubated for 48 hrs by Annexin V-FITC/PI staining based flow cytometry (reference value: 2.79 %); type: functional
MDA-MB-231 [23] = test: Induction of apoptosis in human MDA-MB-231 cells assessed as necrotic cells at 17.5 uM incubated for 48 hrs by Annexin V-FITC/PI staining based flow cytometry (reference value: 0.33 %); type: functional
MDA-MB-231 [24] = test: Induction of apoptosis in human MDA-MB-231 cells assessed as viable cells at 20 uM incubated for 48 hrs by Annexin V-FITC/PI staining based flow cytometry (reference value: 91.2 %); type: functional; conditions: read-out: Activity
MDA-MB-231 [25] = test: Induction of apoptosis in human MDA-MB-231 cells assessed as early apoptotic cells at 20 uM incubated for 48 hrs by Annexin V-FITC/PI staining based flow cytometry (reference value: 5.72 %); type: functional
MDA-MB-231 [26] = test: Induction of apoptosis in human MDA-MB-231 cells assessed as late apoptotic cells at 20 uM incubated for 48 hrs by Annexin V-FITC/PI staining based flow cytometry (reference value: 2.79 %); type: functional
MDA-MB-231 [27] = test: Induction of apoptosis in human MDA-MB-231 cells assessed as necrotic cells at 20 uM incubated for 48 hrs by Annexin V-FITC/PI staining based flow cytometry (reference value: 0.33 %); type: functional
MDA-MB-231 [28] = test: Induction of mitochondrial dysfunction in human MDA-MB-231 cells assessed as cell with low mitochondrial membrane potential at 15 uM incubated for 24 hrs by JC-1 staining based flow cytometry (reference value: 3.68 %); type: functional
MDA-MB-231 [29] = test: Induction of mitochondrial dysfunction in human MDA-MB-231 cells assessed as cell with low mitochondrial membrane potential at 17.5 uM incubated for 24 hrs by JC-1 staining based flow cytometry (reference value: 3.68 %); type: functional
MDA-MB-231 [30] = test: Induction of mitochondrial dysfunction in human MDA-MB-231 cells assessed as cell with low mitochondrial membrane potential at 20 uM incubated for 24 hrs by JC-1 staining based flow cytometry (reference value: 3.68 %); type: functional
MDA-MB-231 [31] = test: Induction of mitochondrial dysfunction in human MDA-MB-231 cells assessed as cell with low mitochondrial membrane potential at 15 uM incubated for 48 hrs by JC-1 staining based flow cytometry (reference value: 2.50 %); type: functional
MDA-MB-231 [32] = test: Induction of mitochondrial dysfunction in human MDA-MB-231 cells assessed as cell with low mitochondrial membrane potential at 17.5 uM incubated for 48 hrs by JC-1 staining based flow cytometry (reference value: 2.50 %); type: functional
MDA-MB-231 [33] = test: Induction of mitochondrial dysfunction in human MDA-MB-231 cells assessed as cell with low mitochondrial membrane potential at 20 uM incubated for 48 hrs by JC-1 staining based flow cytometry (reference value: 2.50 %); type: functional
MDA-MB-231 [34] = test: Induction of apoptosis in human MDA-MB-231 cells assessed as increase in cleaved caspase-9 level incubated for 24 to 48 hrs by Western blot analysis; type: functional, cell-based; conditions: dose <= 20.0 µM, time 24-48 hrs
MDA-MB-231 [35] = test: Induction of apoptosis in human MDA-MB-231 cells assessed as increase in cleaved caspase-9 level upto 20 uM by Western blot analysis; type: functional, cell-based; conditions: time 24-48 hrs, TDE = time-dependent effect

SMILES: COC(=O)C[C@]12C=C3C(=O)c4ccccc4O[C@@]3(CC1)[C@H]1C(=O)N(C3CCCCC3)C(=O)[C@H]12
- IC50 (HepG2): > 50 µM
- IC50 (A549): > 50 µM
- IC50 (MDA-MB-231 [1]): > 50 µM

SMILES: COC(=O)C[C@]12C=C3C(=O)c4ccccc4O[C@@]3(CC1)[C@H]1C(=O)N(c3ccc(C(F)(F)F)cc3)C(=O)[C@H]12
- IC50 (HepG2): 15.9 µM
- IC50 (A549): 19.3 µM
- IC50 (MDA-MB-231 [1]): 13 µM
- Activity (MDA-MB-231 [2]): Dose-Dependent Effect
- Activity (MDA-MB-231 [3]): >15%
- viability at 15 µM (MDA-MB-231 [4]): 84.2%
- Activity (MDA-MB-231 [5]): 9.01%
- Activity (MDA-MB-231 [6]): 5.84%
- Activity (MDA-MB-231 [7]): 0.98%
- viability at 17.5 µM (MDA-MB-231 [8]): 72.8%
- Activity (MDA-MB-231 [9]): 15.3%
- Activity (MDA-MB-231 [10]): 10.3%
- Activity (MDA-MB-231 [11]): 1.7%
- viability at 20 µM (MDA-MB-231 [12]): 62.1%
- Activity (MDA-MB-231 [13]): 18.8%
- Activity (MDA-MB-231 [14]): 16.8%
- Activity (MDA-MB-231 [15]): 2.33%
- viability at 15 µM (MDA-MB-231 [16]): 67.4%
- Activity (MDA-MB-231 [17]): 24.4%
- Activity (MDA-MB-231 [18]): 7.51%
- Activity (MDA-MB-231 [19]): 0.7%
- viability at 17.5 µM (MDA-MB-231 [20]): 40.7%
- Activity (MDA-MB-231 [21]): 43.4%
- Activity (MDA-MB-231 [22]): 14.5%
- Activity (MDA-MB-231 [23]): 1.38%
- viability at 20 µM (MDA-MB-231 [24]): 26%
- Activity (MDA-MB-231 [25]): 56.9%
- Activity (MDA-MB-231 [26]): 15.2%
- Activity (MDA-MB-231 [27]): 1.87%
- Activity (MDA-MB-231 [28]): 29.07%
- Activity (MDA-MB-231 [29]): 53%
- Activity (MDA-MB-231 [30]): 59.57%
- Activity (MDA-MB-231 [31]): 70.23%
- Activity (MDA-MB-231 [32]): 92.63%
- Activity (MDA-MB-231 [33]): 96.87%
- Activity (MDA-MB-231 [34]): Dose-Dependent Effect
- Activity (MDA-MB-231 [35]): Tde

SMILES: COC(=O)C[C@]12C=C3C(=O)c4ccccc4O[C@@]3(CC1)[C@H]1C(=O)N(c3ccc(Br)cc3)C(=O)[C@H]12
- IC50 (HepG2): 25.6 µM
- IC50 (A549): 24.3 µM
- IC50 (MDA-MB-231 [1]): 24.4 µM

SMILES: COC(=O)C[C@]12C=C3C(=O)c4ccccc4O[C@@]3(CC1)[C@H]1C(=O)N(c3ccc(OC)cc3)C(=O)[C@H]12
- IC50 (HepG2): > 50 µM
- IC50 (A549): > 50 µM
- IC50 (MDA-MB-231 [1]): > 50 µM

SMILES: COC(=O)C[C@]12C=C3C(=O)c4ccccc4O[C@@]3(CC1)[C@H]1C(=O)N(C(C)(C)C)C(=O)[C@H]12
- IC50 (HepG2): > 50 µM
- IC50 (A549): > 50 µM
- IC50 (MDA-MB-231 [1]): > 50 µM

SMILES: CC(=O)O[C@H]1C(=O)[C@@]2(C)[C@H]([C@H](OC(=O)c3ccccc3)[C@]3(O)C[C@H](OC(=O)[C@H](O)[C@@H](NC(=O)c4ccccc4)c4ccccc4)C(C)=C1C3(C)C)[C@]1(OC(C)=O)CO[C@@H]1C[C@@H]2O [PACLITAXEL]
- IC50 (HepG2): 0.06 µM
- IC50 (A549): 0.4 µM
- IC50 (MDA-MB-231 [1]): 0.11 µM

SMILES: COC(=O)C[C@]12C=C3C(=O)c4cccc(C)c4O[C@@]3(CC1)[C@H]1C(=O)N(c3ccc(Br)cc3)C(=O)[C@H]12
- IC50 (HepG2): 22.5 µM
- IC50 (A549): 29.1 µM
- IC50 (MDA-MB-231 [1]): 23.4 µM
